Assay results as given in the NIST ThermoML archive (doi:10.1021/acs.jced.6b00536).

Assay: xn = mol fraction of the nth substance listed
Conditions: Gas, Frequency=0.05 MHz, Single path-length method, x2 = 0.058

FC(F)(F)C(F)(F)C(F)(F)F [octafluoropropane] + N#N
Conditions	speed of sound [m/s]
252.62 K, 0.0858 kPa	109
252.62 K, 0.1039 kPa	108.4
252.62 K, 0.1203 kPa	107.8
252.62 K, 0.137 kPa	107.18
252.62 K, 0.1525 kPa	106.62
252.62 K, 0.1669 kPa	106.06
252.62 K, 0.1773 kPa	105.75
252.62 K, 0.1861 kPa	105.38
252.62 K, 0.1862 kPa	105.38
257.71 K, 0.08757 kPa	110.16
257.71 K, 0.1056 kPa	109.59
257.71 K, 0.1227 kPa	109
257.71 K, 0.1398 kPa	108.4
257.71 K, 0.1558 kPa	107.86
257.71 K, 0.1702 kPa	107.33
257.71 K, 0.181 kPa	107.04
257.71 K, 0.1898 kPa	106.68
257.71 K, 0.19 kPa	106.68
257.71 K, 0.2222 kPa	105.46
257.71 K, 0.2396 kPa	104.86
257.71 K, 0.2541 kPa	104.28
257.71 K, 0.2547 kPa	104.37
262.83 K, 0.08917 kPa	111.32
262.83 K, 0.1075 kPa	110.77
262.83 K, 0.125 kPa	110.2
262.83 K, 0.1429 kPa	109.63
262.83 K, 0.1589 kPa	109.12
262.83 K, 0.1737 kPa	108.6
262.83 K, 0.1844 kPa	108.31
262.83 K, 0.1937 kPa	107.97
262.83 K, 0.1942 kPa	107.97
262.83 K, 0.2273 kPa	106.8
262.83 K, 0.2449 kPa	106.21
262.83 K, 0.2605 kPa	105.64
262.83 K, 0.2771 kPa	105.01
262.83 K, 0.2894 kPa	104.6
267.94 K, 0.09058 kPa	112.46
267.94 K, 0.1095 kPa	111.93
267.94 K, 0.1273 kPa	111.39
267.94 K, 0.1462 kPa	110.83
267.94 K, 0.1619 kPa	110.33
267.94 K, 0.1773 kPa	109.83
267.94 K, 0.1883 kPa	109.56
267.94 K, 0.1978 kPa	109.24
267.94 K, 0.1983 kPa	109.23
267.94 K, 0.2324 kPa	108.11
267.94 K, 0.2503 kPa	107.55
267.94 K, 0.2663 kPa	106.99
267.94 K, 0.2836 kPa	106.41
267.94 K, 0.2966 kPa	105.98
273.07 K, 0.09281 kPa	113.6
273.07 K, 0.1111 kPa	113.09
273.07 K, 0.1299 kPa	112.57
273.07 K, 0.149 kPa	112.03
273.07 K, 0.1655 kPa	111.55
273.07 K, 0.1819 kPa	111.06
273.07 K, 0.1923 kPa	110.81
273.07 K, 0.2019 kPa	110.5
273.07 K, 0.2023 kPa	110.49
273.07 K, 0.2381 kPa	109.41
273.07 K, 0.2555 kPa	108.88
273.07 K, 0.2726 kPa	108.31
273.07 K, 0.2918 kPa	107.72
273.07 K, 0.3039 kPa	107.38
278.15 K, 0.0943 kPa	114.71
278.15 K, 0.1132 kPa	114.22
278.15 K, 0.1321 kPa	113.71
278.15 K, 0.1515 kPa	113.2
278.15 K, 0.1686 kPa	112.73
278.15 K, 0.1856 kPa	112.27
278.15 K, 0.1961 kPa	112.03
278.15 K, 0.2057 kPa	111.72
278.15 K, 0.2062 kPa	111.72
278.15 K, 0.2428 kPa	110.66
278.15 K, 0.2609 kPa	110.16
278.15 K, 0.2783 kPa	109.63
278.15 K, 0.2983 kPa	109.03
278.15 K, 0.3119 kPa	108.65
283.2 K, 0.09562 kPa	115.81
283.2 K, 0.1152 kPa	115.33
283.2 K, 0.1344 kPa	114.84
283.2 K, 0.1548 kPa	114.34
283.2 K, 0.1718 kPa	113.88
283.2 K, 0.1892 kPa	113.45
283.2 K, 0.1997 kPa	113.19
283.2 K, 0.2093 kPa	112.93
283.2 K, 0.2102 kPa	112.92
283.2 K, 0.2476 kPa	111.9
283.2 K, 0.2662 kPa	111.41
283.2 K, 0.2839 kPa	110.89
283.2 K, 0.3047 kPa	110.33
283.2 K, 0.3184 kPa	109.97
288.26 K, 0.09724 kPa	116.9
288.26 K, 0.117 kPa	116.43
288.26 K, 0.1367 kPa	115.96
288.26 K, 0.1569 kPa	115.48
288.26 K, 0.175 kPa	115.05
288.26 K, 0.193 kPa	114.61
288.26 K, 0.2034 kPa	114.38
288.26 K, 0.2133 kPa	114.1
288.26 K, 0.2142 kPa	114.08
288.26 K, 0.2525 kPa	113.14
288.26 K, 0.2716 kPa	112.65
288.26 K, 0.2896 kPa	112.16
288.26 K, 0.3111 kPa	111.61
288.26 K, 0.3249 kPa	111.24
293.32 K, 0.09882 kPa	117.97
293.32 K, 0.119 kPa	117.53
293.32 K, 0.1196 kPa	117.53
293.32 K, 0.139 kPa	117.08
293.32 K, 0.1393 kPa	117.06
293.32 K, 0.1596 kPa	116.59
293.32 K, 0.1599 kPa	116.61
293.32 K, 0.1779 kPa	116.19
293.32 K, 0.1782 kPa	116.19
293.32 K, 0.1958 kPa	115.78
293.32 K, 0.1967 kPa	115.77
293.32 K, 0.207 kPa	115.54
293.32 K, 0.2174 kPa	115.26
293.32 K, 0.218 kPa	115.26
293.32 K, 0.2185 kPa	115.27
293.32 K, 0.2573 kPa	114.33
293.32 K, 0.2766 kPa	113.86
293.32 K, 0.2771 kPa	113.88
293.32 K, 0.2946 kPa	113.41
293.32 K, 0.2954 kPa	113.39
293.32 K, 0.3175 kPa	112.86
293.32 K, 0.3315 kPa	112.52
298.38 K, 0.1005 kPa	119.04
298.38 K, 0.121 kPa	118.61
298.38 K, 0.1413 kPa	118.17
298.38 K, 0.1627 kPa	117.7
298.38 K, 0.1814 kPa	117.31
298.38 K, 0.2001 kPa	116.91
298.38 K, 0.2106 kPa	116.69
298.38 K, 0.2213 kPa	116.42
298.38 K, 0.222 kPa	116.42
298.38 K, 0.262 kPa	115.52
298.38 K, 0.282 kPa	115.07
298.38 K, 0.3011 kPa	114.61
298.38 K, 0.3239 kPa	114.1
298.38 K, 0.338 kPa	113.78
303.42 K, 0.1021 kPa	120.1
303.42 K, 0.1231 kPa	119.68
303.42 K, 0.1437 kPa	119.25
303.42 K, 0.1656 kPa	118.81
303.42 K, 0.1845 kPa	118.41
303.42 K, 0.2036 kPa	118.03
303.42 K, 0.2142 kPa	117.81
303.42 K, 0.2253 kPa	117.56
303.42 K, 0.2258 kPa	117.55
303.42 K, 0.2668 kPa	116.7
303.42 K, 0.2873 kPa	116.26
303.42 K, 0.3067 kPa	115.81
303.42 K, 0.3302 kPa	115.32
303.42 K, 0.3443 kPa	114.98
308.47 K, 0.1038 kPa	121.14
308.47 K, 0.1251 kPa	120.73
308.47 K, 0.146 kPa	120.32
308.47 K, 0.1683 kPa	119.89
308.47 K, 0.1877 kPa	119.52
308.47 K, 0.207 kPa	119.14
308.47 K, 0.2178 kPa	118.93
308.47 K, 0.2293 kPa	118.7
308.47 K, 0.2297 kPa	118.68
308.47 K, 0.2717 kPa	117.84
308.47 K, 0.2924 kPa	117.42
308.47 K, 0.3124 kPa	116.99
308.47 K, 0.3365 kPa	116.51
308.47 K, 0.3509 kPa	116.21
313.51 K, 0.1052 kPa	122.18
313.51 K, 0.1271 kPa	121.79
313.51 K, 0.1483 kPa	121.39
313.51 K, 0.171 kPa	120.97
313.51 K, 0.1907 kPa	120.6
313.51 K, 0.2105 kPa	120.24
313.51 K, 0.2214 kPa	120.03
313.51 K, 0.2331 kPa	119.78
313.51 K, 0.2338 kPa	119.8
313.51 K, 0.2763 kPa	118.97
313.51 K, 0.2975 kPa	118.58
313.51 K, 0.318 kPa	118.15
313.51 K, 0.3428 kPa	117.7
313.51 K, 0.3574 kPa	117.4
318.52 K, 0.1068 kPa	123.2
318.52 K, 0.1291 kPa	122.82
318.52 K, 0.1506 kPa	122.42
318.52 K, 0.1737 kPa	122.03
318.52 K, 0.1939 kPa	121.67
318.52 K, 0.2139 kPa	121.32
318.52 K, 0.2251 kPa	121.12
318.52 K, 0.2374 kPa	120.89
318.52 K, 0.2377 kPa	120.89
318.52 K, 0.2812 kPa	120.11
318.52 K, 0.3027 kPa	119.71
318.52 K, 0.3235 kPa	119.3
318.52 K, 0.349 kPa	118.86
318.52 K, 0.3638 kPa	118.57
323.53 K, 0.1085 kPa	124.22
323.53 K, 0.1312 kPa	123.85
323.53 K, 0.1531 kPa	123.46
323.53 K, 0.1766 kPa	123.09
323.53 K, 0.197 kPa	122.74
323.53 K, 0.2175 kPa	122.4
323.53 K, 0.2288 kPa	122.2
323.53 K, 0.2413 kPa	121.97
323.53 K, 0.2416 kPa	121.98
323.53 K, 0.2859 kPa	121.21
323.53 K, 0.308 kPa	120.83
323.53 K, 0.3293 kPa	120.45
323.53 K, 0.3551 kPa	120.01
323.53 K, 0.3704 kPa	119.72
